Assay results reported in patent US10239902B2, “Stable peptide-conjugated ascorbic acid derivative, method for preparing same, and cosmetic composition comprising same” (CELLTRION INC., priority 2014, dated 2019).
Where a name gives a salt, the structure may show the parent alone.

Experiments:
[1] = system: Human neonatal dermal fibroblast cells; assay: Effect on collagen activation: procollagen production in fibroblasts; assay type: cell-based; conditions: for Procollagen Average: 48 hours; for Procollagen Ex 1: replicate Ex 1; for Procollagen Ex 2: replicate Ex 2; for Procollagen Ex 3: replicate Ex 3
Procedure: Human neonatal dermal fibroblast cells (Cascade Co.) were seeded into a 24-well microplate (5×10^4 cells/well) with DMEM medium supplemented with 10% fetal bovine serum, and were cultured under the condition of 37° C. and 5% CO2 for 24 hours. The medium was replaced with serum-free DMEM medium, and the cells were cultured for 24 hours, and treated with each sample solution such that the final concentration of each test compound reached 1 μg/ml or 5 μg/ml. After 48 hours of culture, the cell culture medium was collected, and the amount of procollagen in the medium was measured using a collagen measurement kit (Takara Shuzo Co., Ltd., Japan). Specifically, the collected cell culture medium was added to a 96-well plate having a primary collagen antibody uniformly applied thereto, and was subjected to an antigen-antibody reaction at 37° C. for 3 hours. The cell culture medium was removed from each well which was then washed four times with PBS. A color-developing substance was added to each well and incubated at room temperature for 15 minutes, and then 1 N sulfuric acid solution was added to each well to stop the reaction. The absorbance at 450 nm was measured with a spectrophotometer. A standard curve was prepared using a standard solution, and the absorbance obtained as described above was substituted into the standard curve to thereby determine the production of procollagen in the cell culture medium in which each test compound was added.

[2] = Stability against water and heat (40° C., 75% relative humidity, HPLC); assay type: physicochemical; conditions: for percentage of the active ingredient relative to the initial value at day 0: 40° C., relative humidity 75%, sealed
Procedure: The stability of an active ingredient, which is used in cosmetic compositions, after water and heat, is an important factor not only in a preparation process, but also in the long-term storage of the composition. Thus, the stabilities of compounds I-1 and I-2, prepared in Examples 1 and 2, respectively, against water and heat, were measured. Specifically, each of compounds I-1 and I-2 was stored in a sealed state under the severe conditions of temperature of 40° C. and relative humidity of 75%, and the percentage of the active ingredient in each sample after 3, 7, 14 and 28 days relative to the initial value of the active value of the active ingredient at day 0 was analyzed by high-performance liquid chromatography (HPLC).

[3] = system: B16F1 melanoma cell lines (ATCC CRL-6323); assay: Melanin inhibitory effect in B16F1 melanoma cells; assay type: cell-based; conditions: for Melanin/Protein Average: 72 hours, B16F1; for Melanin/Protein EX1: replicate EX1; for Melanin/Protein EX2: replicate EX2; for Melanin/Protein EX3: replicate EX3
Procedure: B16F1 melanoma cell lines (ATCC CRL-6323) were added to a DMEM medium supplemented with 10% fetal bovine serum, 100 U/ml penicillin and 100 μg/ml streptomycin and were cultured under the condition of 37° C. and 5% CO2. After culture, the medium was replaced with DMEM medium (Invitrogen-Gibco-BRL, cells/well), and treated with a suitable amount of a sample solution such that the final concentration of each test compound reached 0 μg/ml, 10 μg/ml, 20 μg/ml or 40 μg/ml. After 72 hours, the medium was removed, and the cells were washed with PBS (phosphate buffered saline), harvested, and dried at 60° C. Next, a melanin extraction solution (1 N NaOH+10% DMSO) was added to the cells which were then lysed at 80° C. Next, the amount of melanin was quantified using synthetic melanin as a standard, and the amount of protein was quantified. The amount of melanin per unit protein was calculated, and expressed as % control value relative to a control.

Row | Compound | Procollagen Average ([1]; 1 μg/ml) [ng/mL] | Procollagen Ex 1 ([1]; 1 μg/ml) [ng/mL] | Procollagen Ex 2 ([1]; 1 μg/ml) [ng/mL] | Procollagen Ex 3 ([1]; 1 μg/ml) [ng/mL] | Procollagen Average ([1]; 5 μg/ml) [ng/mL] | Procollagen Ex 1 ([1]; 5 μg/ml) [ng/mL] | Procollagen Ex 2 ([1]; 5 μg/ml) [ng/mL] | Procollagen Ex 3 ([1]; 5 μg/ml) [ng/mL] | percentage of the active ingredient relative to the initial value at day 0 ([2]; 0 day) [%] | percentage of the active ingredient relative to the initial value at day 0 ([2]; 3 days) [%] | percentage of the active ingredient relative to the initial value at day 0 ([2]; 7 days) [%] | percentage of the active ingredient relative to the initial value at day 0 ([2]; 14 days) [%] | Melanin/Protein Average ([3]; 10 μg/ml) [µg/mg] | Melanin/Protein EX1 ([3]; 10 μg/ml) [µg/mg] | Melanin/Protein EX2 ([3]; 10 μg/ml) [µg/mg] | Melanin/Protein EX3 ([3]; 10 μg/ml) [µg/mg] | Melanin/Protein Average ([3]; 20 μg/ml) [µg/mg] | Melanin/Protein EX1 ([3]; 20 μg/ml) [µg/mg] | Melanin/Protein EX2 ([3]; 20 μg/ml) [µg/mg] | Melanin/Protein EX3 ([3]; 20 μg/ml) [µg/mg] | also measured
1 | NC(N)=NCCC[C@H](N)C(=O)NCC(=O)N[C@@H](CC(=O)O)C(=O)NCCCOP(=O)(O)OC1=C(O)C([C@@H](O)CO)OC1=O (stereo partly drawn) [Compound I-2, (3S)-3-(2-((5)-2-amino-5-((diaminomethylene)amino)pentanamido)acetamido)-4-((3-((((5-((S)-1,2-dihydroxyethyl)-4-hydroxy-2-oxo-2,5-dihydrofuran-3-yl)oxy)(hydroxyl)phosphoryl)oxy)propyl)amino)-4-oxobutanoate hydrochloride] | 253.1 | 252.4 | 243.8 | 263.1 | 302.7 | 298.1 | 301.6 | 308.5 | 100 | 100.3 | 100.0 | 99.8 | 143.4 | 133.4 | 145.1 | 151.7 | 134.4 | 137.9 | 141.5 | 123.7 | percentage of the active ingredient relative to the initial value at day 0 ([2]; 28 days): 99.8%; stability under severe conditions (in words) ([2]; 28 days, compared with LAAP (Vitagen)): excellent stability comparable to that of commercially available LAAP (Vitagen)
2 | NCCCOP(=O)(O)OC1=C(O)C([C@@H](O)CO)OC1=O (stereo partly drawn) [LAAP, 3-aminopropyl(5-((S)-1,2-dihydroxyethyl)-4-hydroxy-2-oxo-2,5-dihydrofuran-3-yl)hydrogen phosphate, reference compound] | 242.3 | 231.4 | 251.3 | 244.1 | 281.1 | 268.1 | 276.1 | 299.1 | 100 | 100.4 | 100.9 | 99.9 | 159.9 | 148.2 | 165.8 | 165.8 | 137.4 | 132.4 | 140.6 | 139.1 | percentage of the active ingredient relative to the initial value at day 0 ([2]; 28 days): 98.5%
3 | Palmitoyl tripeptide-5 [KVK-Pal, reference compound] | 244.4 | 248.9 | 259.7 | 224.7 | 283.6 | 273.9 | 295.5 | 281.3 | – | – | – | – | 173.3 | 156.9 | 189.1 | 173.8 | 164.2 | 151.9 | 175.7 | 165.1 | –
